Experimental data published in paper PMC6547681 (Nature Communications, 2019).
Where “and” joins values, the source holds several entries; their conditions need not be identical. Equal values may be shown once. Read-outs that look alike come from different tables or passages of the source.

Experiments:
BCL-2 G101V = experiment: Steady-state competition SPR against immobilised BIMBH3 peptide, BCL-2 G101V; assay type: binding, human; conditions: for Ki: BCL-2 G101V
Protocol: SPR experiments were performed as previously described. […] The lowest concentrations used in direct binding experiments were 1 nM for BIAcore 4000 and 0.1 nM for BIAcore S200 instruments, concentrations below these were below the sensitivity thresholds for the instruments. […] Direct binding experiments were fitted to a 1:1 binding site kinetic model, fitting on and off rates, in BIAevaluation software. For competition experiments steady-state responses were determined in BIAevaluation software according to the software defaults in affinity evaluation mode averaging responses for 5 sec. […] All affinity measurements were performed in at least two independent experiments using independent protein preparations.

[1] = system: KMS-12-PE cells expressing BCL-2 G101V; experiment: CellTiter-Glo cell viability, KMS-12-PE cells overexpressing BCL-2 G101V; conditions: read-out: S55746 LC50, KMS-12-PE overexpressing BCL-2 G101V, 24 h, mean ± SD, n = 3

O=C(c1cc(-c2cc3c(cc2C(=O)N2Cc4ccccc4C[C@H]2CN2CCOCC2)OCO3)n2c1CCCC2)N(c1ccccc1)c1ccc(O)cc1 [S55746] was tested, and the “Raw data values in Figure 3g (SPR response)” value (“Raw data values in Figure 3g” for short) (BCL-2 G101V; S55746 concentration 40, BCL-2 concentration 60 nM, independent experiment 3) was 48.7177, the “Raw data values in Figure 3g” value (BCL-2 G101V; S55746 concentration 40, BCL-2 concentration 70 nM, independent experiment 1) was 85.9498 and the “Raw data values in Figure 3g” value (BCL-2 G101V; S55746 concentration 40, BCL-2 concentration 70 nM, independent experiment 2) was 301.246. For the same molecule, the “Raw data values in Figure 3g” value (BCL-2 G101V; S55746 concentration 40, BCL-2 concentration 70 nM, independent experiment 3) was 49.6061, the “Raw data values in Figure 3g” value (BCL-2 G101V; S55746 concentration 40, BCL-2 concentration 80 nM, independent experiment 1) was 87.455 and the “Raw data values in Figure 3g” value (BCL-2 G101V; S55746 concentration 40, BCL-2 concentration 80 nM, independent experiment 2) was 307.892. The “Raw data values in Figure 3g” value (BCL-2 G101V; S55746 concentration 40, BCL-2 concentration 80 nM, independent experiment 3) was 50.2962, the “Raw data values in Figure 3g” value (BCL-2 G101V; S55746 concentration 40, BCL-2 concentration 100 nM, independent experiment 1) was 89.2588 and the “Raw data values in Figure 3g” value (BCL-2 G101V; S55746 concentration 40, BCL-2 concentration 100 nM, independent experiment 2) was 318.485. For the same molecule, the “Raw data values in Figure 3g” value (BCL-2 G101V; S55746 concentration 40, BCL-2 concentration 100 nM, independent experiment 3) was 51.3212, the “Raw data values in Figure 3g” value (BCL-2 G101V; S55746 concentration 40, BCL-2 concentration 150 nM, independent experiment 1) was 91.8217 and the “Raw data values in Figure 3g” value (BCL-2 G101V; S55746 concentration 40, BCL-2 concentration 150 nM, independent experiment 2) was 334.001. The “Raw data values in Figure 3g” value (BCL-2 G101V; S55746 concentration 40, BCL-2 concentration 150 nM, independent experiment 3) was 52.4759, the “Raw data values in Figure 3g” value (BCL-2 G101V; S55746 concentration 40, BCL-2 concentration 200 nM, independent experiment 1) was 93.5739 and the “Raw data values in Figure 3g” value (BCL-2 G101V; S55746 concentration 40, BCL-2 concentration 250 nM, independent experiment 2) was 347.773. For the same molecule, the “Raw data values in Figure 3g” value (BCL-2 G101V; S55746 concentration 40, BCL-2 concentration 250 nM, independent experiment 3) was 53.5471, the “Raw data values in Figure 3g” value (BCL-2 G101V; S55746 concentration 60, BCL-2 concentration 10 nM, independent experiment 1) was 47.4597 and the “Raw data values in Figure 3g” value (BCL-2 G101V; S55746 concentration 60, BCL-2 concentration 10 nM, independent experiment 2) was 98.8052. For the same molecule, the “Raw data values in Figure 3g” value (BCL-2 G101V; S55746 concentration 60, BCL-2 concentration 20 nM, independent experiment 1) was 62.0582, the “Raw data values in Figure 3g” value (BCL-2 G101V; S55746 concentration 60, BCL-2 concentration 20 nM, independent experiment 2) was 156.985 and the “Raw data values in Figure 3g” value (BCL-2 G101V; S55746 concentration 60, BCL-2 concentration 30 nM, independent experiment 1) was 69.7854. The “Raw data values in Figure 3g” value (BCL-2 G101V; S55746 concentration 60, BCL-2 concentration 30 nM, independent experiment 2) was 196.195, the “Raw data values in Figure 3g” value (BCL-2 G101V; S55746 concentration 60, BCL-2 concentration 40 nM, independent experiment 1) was 76.161 and the “Raw data values in Figure 3g” value (BCL-2 G101V; S55746 concentration 60, BCL-2 concentration 40 nM, independent experiment 2) was 224.521. The “Raw data values in Figure 3g” value (BCL-2 G101V; S55746 concentration 60, BCL-2 concentration 50 nM, independent experiment 1) was 79.3118, the “Raw data values in Figure 3g” value (BCL-2 G101V; S55746 concentration 60, BCL-2 concentration 50 nM, independent experiment 2) was 244.821 and the “Raw data values in Figure 3g” value (BCL-2 G101V; S55746 concentration 60, BCL-2 concentration 60 nM, independent experiment 1) was 82.6237. The “Raw data values in Figure 3g” value (BCL-2 G101V; S55746 concentration 60, BCL-2 concentration 60 nM, independent experiment 2) was 261.933, the “Raw data values in Figure 3g” value (BCL-2 G101V; S55746 concentration 60, BCL-2 concentration 70 nM, independent experiment 1) was 84.8163 and the “Raw data values in Figure 3g” value (BCL-2 G101V; S55746 concentration 60, BCL-2 concentration 70 nM, independent experiment 2) was 275.69. For the same molecule, the “Raw data values in Figure 3g” value (BCL-2 G101V; S55746 concentration 60, BCL-2 concentration 80 nM, independent experiment 1) was 85.9361, the “Raw data values in Figure 3g” value (BCL-2 G101V; S55746 concentration 60, BCL-2 concentration 80 nM, independent experiment 2) was 286.55 and the “Raw data values in Figure 3g” value (BCL-2 G101V; S55746 concentration 60, BCL-2 concentration 100 nM, independent experiment 1) was 88.8819. The “Raw data values in Figure 3g” value (BCL-2 G101V; S55746 concentration 60, BCL-2 concentration 100 nM, independent experiment 2) was 303.493, the “Raw data values in Figure 3g” value (BCL-2 G101V; S55746 concentration 60, BCL-2 concentration 150 nM, independent experiment 1) was 91.2891 and the “Raw data values in Figure 3g” value (BCL-2 G101V; S55746 concentration 60, BCL-2 concentration 150 nM, independent experiment 2) was 325.735. For the same molecule, the “Raw data values in Figure 3g” value (BCL-2 G101V; S55746 concentration 60, BCL-2 concentration 200 nM, independent experiment 1) was 93.4484, the “Raw data values in Figure 3g” value (BCL-2 G101V; S55746 concentration 60, BCL-2 concentration 250 nM, independent experiment 2) was 343.304 and the “Raw data values in Figure 3g” value (BCL-2 G101V; S55746 concentration 80, BCL-2 concentration 10 nM, independent experiment 3) was 22.8907. For the same molecule, the “Raw data values in Figure 3g” value (BCL-2 G101V; S55746 concentration 80, BCL-2 concentration 20 nM, independent experiment 3) was 32.1933, the “Raw data values in Figure 3g” value (BCL-2 G101V; S55746 concentration 80, BCL-2 concentration 30 nM, independent experiment 3) was 37.5379 and the “Raw data values in Figure 3g” value (BCL-2 G101V; S55746 concentration 80, BCL-2 concentration 40 nM, independent experiment 3) was 41.1001. The “Raw data values in Figure 3g” value (BCL-2 G101V; S55746 concentration 80, BCL-2 concentration 50 nM, independent experiment 3) was 43.4737, the “Raw data values in Figure 3g” value (BCL-2 G101V; S55746 concentration 80, BCL-2 concentration 60 nM, independent experiment 3) was 45.424 and the “Raw data values in Figure 3g” value (BCL-2 G101V; S55746 concentration 80, BCL-2 concentration 70 nM, independent experiment 3) was 46.908. The “Raw data values in Figure 3g” value (BCL-2 G101V; S55746 concentration 80, BCL-2 concentration 80 nM, independent experiment 3) was 48.0972, the “Raw data values in Figure 3g” value (BCL-2 G101V; S55746 concentration 80, BCL-2 concentration 100 nM, independent experiment 3) was 49.7546 and the “Raw data values in Figure 3g” value (BCL-2 G101V; S55746 concentration 80, BCL-2 concentration 150 nM, independent experiment 3) was 51.7109. The “Raw data values in Figure 3g” value (BCL-2 G101V; S55746 concentration 80, BCL-2 concentration 250 nM, independent experiment 3) was 53.091, the Ki (BCL-2 G101V; read-out: S55746 KI (mean), competition vs BIMBH3 SPR surface, mean ± SD, n ≥ 2) was 36 nM and 35.7 nM and the Ki (BCL-2 G101V; read-out: S55746 KI, single independent experiments, independent experiments 1-3) was 28.4 nM and 49.8 nM and 29 nM. For the same molecule, the CC50 [1] was 2700 ± 430 nM.
